Experimental data published in US8653054B2, “2-(N-substituted piperazinyl) steroid derivatives” (Universite Laval, priority 2008, dated 2014).
Like-named read-outs stand apart in the source and are kept apart here. Values belong to the molecule of their own block, whether it stands above or below them.

How the values were obtained:
[1] = tested on: HL-60 acute promyelocytic leukemia cells; assay: Cell proliferation assay (MTS) on HL-60 leukemia cells; assay type: cell-based, human;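 also: cells exposed to serially diluted compound for 3 days at 37 °C, then viable cell number read via MTS conversion to coloured formazan by metabolically active cells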
Procedure: (§1) All of the following cell lines were maintained under a CO2 humidified atmosphere at 37° C. The culture media were changed every 3-4 days and the cells were split once a week.
(§2) For the assay, the culture medium was the same.
(§3) The cell proliferation assay was performed using 3-(4,5-dimethylthiazol-2-yl)-5-(3-carboxymethoxyphenyl)2-(4-sulfophenyl)-2H-tetrazolium (MTS) (Cell Titer 96 Aqueous, Promega, USA). MTS is converted into water-soluble colored formazan by dehydrogenase enzymes present in metabolically active cells, which allows the measurement of the number of viable cells.
(§4) The cells were incubated at 37° C. and 5% CO2. The steroid derivatives of the present disclosure were dissolved in ethanol to prepare the 1×10^−2 M stock solutions. The stock solutions and doxorubicin (DOX) (Novapharm, Toronto, Canada) were diluted at multiple concentrations with culture media, added to each well, as indicated, and incubated for 3 days. Following each treatment, 20 μl MTS was added to each well and the mix was incubated for 4 h.

[2] = tested on: K-562 leukemia cells; assay: Cell proliferation assay (MTS) on K-562 leukemia cells; assay type: cell-based; details: Table 3, 3 days incubation
Procedure: as §1, §2, §3, §4

[3] = tested on: OVCAR-3 ovarian cancer cells; assay: Cell proliferation assay (MTS) on OVCAR-3 ovarian cancer cells; assay type: cell-based
Text: For the assay, the culture medium was the same, but without estradiol.

[4] = tested on: MCF-7 breast cancer cells; assay: Cell proliferation assay (MTS) on MCF-7 breast cancer cells; assay type: cell-based, human; details: Table 3, 3 days incubation
Procedure: MCF-7 breast cancer cells were maintained in Dulbecco's Modified Eagle's Medium (DMEM) containing a nutriment mixture F-12 ham (DME-F12) (Sigma, Saint Louis, USA) supplemented with 5% (v/v) fetal bovine serum (FBS), L-glutamine ([…]), penicillin (100 IU/ml), streptomycin sulphate (50 μg/ml) and estradiol (1 nM). For the assay, DME-F12 was supplemented with 5% (v/v) charcoal-strippes FBS, insulin (50 ng/ml) and the same concentrations of antibiotics as above.

[5] = tested on: LNCaP prostate cancer cells; assay: Cell proliferation assay (MTS) on LNCaP prostate cancer cells; assay type: cell-based; details: Table 3, 3 days incubation
Procedure: as §3, §4

[6] = tested on: PC-3 (AR−) prostate cancer cells; assay: Cell proliferation assay (MTS) on PC-3 (AR−) prostate cancer cells; assay type: cell-based; details: Table 3, 3 days incubation
Procedure: as §1, §2, §3, §4

[7] = tested on: WI-38 diploid fibroblasts; assay: Cell proliferation assay (MTS) on WI-38 normal fibroblasts; assay type: cell-based, human; details: Table 3, normal cells, 3 days incubation
[8] = tested on: Shionogi mammary carcinoma cells (AR+); assay: Cell proliferation assay (MTS) on Shionogi mammary carcinoma cells; assay type: cell-based; details: Table 3, 3 days incubation
Procedure: Shionogi mammary carcinoma cells bearing androgen-sensitive (AR+) were routinely grown in Eagle's Minimal Essential Medium (MEM) (Sigma, Saint Louis, USA) supplemented with 5% (v/v) fetal bovine serum (FBS), penicillin (100 IU/ml), streptomycin sulphate (50 μg/ml), 1% (v/v) non-essential amino acids and dihydrotestosterone DHT (10^−8 M). For the assay, MEM devoid of the pH indicator phenol red was supplemented with 2% (v/v) charcoal-strippes FBS and the same concentrations of antibiotics and non-essential amino acids as above.

[9] = tested on: MDA-MB-231 (ER−) breast cancer cells; assay: Cell proliferation assay (MTS) on MDA-MB-231 (ER−) breast cancer cells; assay type: cell-based; details: Table 3, 3 days incubation
Procedure: as §1, §2, §3, §4

[10] = tested on: normal lymphocytes from peripheral blood; assay: Cell proliferation assay (MTS) on normal lymphocytes; details: read-out: IC50 Lymph Norm.
Procedure: as §1, §2, §3, §4

[11] = Plasmatic concentration (AUC) of aminosteroids after a single subcutaneous injection in rat; details: 2.3 mg/kg; for AUC (7 h) / AUC (24 h) / AUC(12 h): Table 5, subcutaneous one time
[12] = in vivo; details: male, Sprague-Dawley, rat, sc, 2.3 mg/kg
[13] = Homo sapiens, HL-60, 72 h, Table 3, 3 days incubation, MTS, read-out: IC50 HL-60
[14] = Homo sapiens, OVCAR-3, 72 h, Table 3, 3 days incubation, MTS
[15] = Homo sapiens, Table 4, HL-60 cancer cell line, read-out: IC50
[16] = Homo sapiens, Table 6, HL-60 cancer cell line, read-out: IC50 (HL-60)

- IC50 [1, 13]: 80 nM
- IC50 ([2]; Homo sapiens, K562, 72 h): 400 nM
- IC50 ([3]; Homo sapiens, OVCAR-3): 900 nM
- IC50 [3, 14]: 900 nM
- IC50 ([4]; Homo sapiens, MCF7, 72 h): > 10000 nM
- IC50 ([5]; Homo sapiens, LNCaP, 72 h): 100 nM
- IC50 ([6]; PC3/AR, 72 h): 900 nM
- IC50 ([8]; 72 h): 1300 nM
- IC50 ([9]; Homo sapiens, MDA-MB-231, 72 h): 900 nM
Compound: COc1cccc2c1C(=O)c1c(O)c3c(c(O)c1C2=O)C[C@@](O)(C(=O)CO)C[C@@H]3O[C@H]1C[C@H](N)[C@H](O)[C@H](C)O1 [Doxorubicin, reference compound]
- IC50 ([7]; Homo sapiens, WI-38, 72 h): 3000 nM
- IC50 ([10]; Lymphocyte, 72 h): 160 nM

Compound: C=C(C)[C@H]1CC=C(C(=O)N2CCC[C@H]2C(=O)N2CCN([C@H]3C[C@@]4(C)[C@@H](CC[C@@H]5[C@@H]4CC[C@]4(C)[C@@H](O)CC[C@@H]54)C[C@@H]3O)CC2)CC1 [PC-46]
- IC50 ([1]; Table 3, 3 days incubation, MTS, read-out: IC50 HL-60): 1900 nM
- IC50 [2]: 14100 nM
- IC50 ([3]; Table 3, 3 days incubation, MTS): 1300 nM
- IC50 [4]: 700 nM
- IC50 [5]: 900 nM
- IC50 [6]: 4000 nM
- IC50 [7]: > 10000 nM
- IC50 [8]: 200 nM
- IC50 [9]: > 10000 nM
- IC50 ([10]; Table 3, normal lymphocytes, 3 days incubation, MTS): 9300 nM
- AUC (7 h) [11]: 771 ng·h/mL
- AUC (24 h) [11]: 830 ng·h/mL
- AUC(12 h) [11]: 830 ng·h/mL

Compound: C[C@]12C[C@H](N3CCN(C(=O)[C@@H]4CCCN4C(=O)c4ccc(C#N)cc4)CC3)[C@@H](O)C[C@@H]1CC[C@@H]1[C@@H]2CC[C@]2(C)[C@@H](O)CC[C@@H]12 [PC-41, 4-{[(2S)-2-({4-[(2β,3α,5α,17β)-3,17-dihydroxyandrostan-2-yl]piperazin-1-yl}carbonyl)pyrrolidin-1-yl]carbonyl}benzonitrile]
- IC50 [1, 13]: 3100 nM
- IC50 ([2]; Homo sapiens, K562, 72 h): > 10000 nM
- IC50 [3, 14]: 800 nM
- IC50 ([4]; Homo sapiens, MCF7, 72 h): 400 nM
- IC50 ([5]; Homo sapiens, LNCaP, 72 h): 1000 nM
- IC50 ([6]; PC3/AR, 72 h): 6500 nM
- IC50 ([7]; Homo sapiens, WI-38, 72 h): > 10000 nM
- IC50 ([8]; 72 h): 200 nM
- IC50 ([9]; Homo sapiens, MDA-MB-231, 72 h): > 10000 nM
- IC50 ([10]; Lymphocyte, 72 h): 19300 nM

Compound: C[C@]12CC[C@H]3[C@@H](CCC4C[C@H](O)[C@@H](N5CCN(C(=O)[C@@H]6CCCN6C(=O)c6ccc7ncccc7c6)CC5)C[C@@]43C)[C@@H]1CC[C@@H]2O (stereo partly drawn) [32 (AH-47), {4-[(2β,3α,17β)-3,17-dihydroxyandrostan-2-yl]piperazin-1-yl}[(2S)-1-(quinolin-6-ylcarbonyl)pyrrolidin-2-yl]methanone]
- IC50 [1, 15]: 4700 nM
- IC50 [1, 16]: 4700 nM
- AUC(0-t) ([12]; AUC (0-3 h)): 292 ng·h/mL
- AUC(0-t) ([12]; AUC (0-12 h)): 1170 ng·h/mL

Compound: C[C@]12C[C@H](N3CCN(C(=O)[C@@H]4CCCN4C(=O)c4ccc5ccccc5c4)CC3)[C@@H](O)C[C@@H]1CC[C@@H]1[C@@H]2CC[C@@]2(C)[C@H]1CC[C@]2(C)O [30 (AH-56), {4-[(2β,3α,17β)-3,17-dihydroxy-17-methylandrostan-2-yl]piperazin-1-yl}[(2S)-1-(naphthalen-2-ylcarbonyl)pyrrolidin-2-yl]methanone]
- IC50 ([1]; Table 4, HL-60 cancer cell line, read-out: IC50): 4700 nM
- IC50 ([1]; Table 6, HL-60 cancer cell line, read-out: IC50 (HL-60)): 4700 nM
- AUC (0-3 h) ([11]; Table 6, subcutaneous one time): 183 ng·h/mL
- AUC (0-12 h) ([11]; Table 6, subcutaneous one time): 876 ng·h/mL

- AUC (7 h) [11]: 372 ng·h/mL
- AUC (24 h) [11]: 681 ng·h/mL
- AUC(12 h) [11]: 525 ng·h/mL
Compound: CC[C@]1(O)CC[C@H]2[C@@H]3CC[C@H]4C[C@H](O)[C@@H](N5CCN(C(=O)[C@@H]6CCCN6C(=O)c6cccc7ccccc67)CC5)C[C@]4(C)[C@H]3CC[C@@]21C [LPC-37]

Compound: C[C@]12C[C@H](N3CCN(C(=O)[C@@H]4CCCN4C(=O)c4ccc5ccccc5c4)CC3)[C@@H](OC(=O)c3ccccc3C(=O)O)C[C@@H]1CC[C@@H]1[C@@H]2CC[C@]2(C)[C@@H](OC(=O)c3ccccc3C(=O)O)CC[C@@H]12 [38 (AH-75), 2,2′-{[(2β,3α,5α,17β)-2-{4-[1-(naphthalen-2-ylcarbonyl)-L-prolyl]piperazin-1-yl}androstane-3,17-diyl]bis(oxycarbonyl)}dibenzoic acid]
- IC50 [1, 15]: > 10000 nM
- IC50 [1, 16]: > 10000 nM
- AUC(0-t) ([12]; AUC (0-3 h)): 38 ng·h/mL
- AUC(0-t) ([12]; AUC (0-12 h)): 72 ng·h/mL
